Here are results for two molecules from patent US20180051301A1, “INDUCTION OF PACEMAKER-LIKE CELLS FROM CARDIOMYOCYTES” (WASHINGTON UNIVERSITY, priority 2015, published 2018).

Common to all, as to type: cell-based
Experiment [1] relates to Donor left ventricular slices. Put plainly: Optical mapping of acute drug response in donor human left ventricular slices. To be noted: donor left ventricular slices paced at 1 Hz; β-adrenergic stimulation with isoproterenol (100 nM); ±S.D.; baseline 0.67±0.03. The protocol:
After arrival, an approximately one-inch cube of left ventricular tissue or right atrial tissue was cut in cardioplegic solution. Left ventricular tissue was taken from a region close to left anterior descending artery and circumflex artery. Atrial tissue was taken from crista terminalis below sinoatrial node region. Premade 4% agarose gel cooled at 4° C. was glued on to the tissue holder of a high precision vibrating microtome (7000 smz-2, Campden Instruments Ltd. UK). The tissue block was then mounted endocardium up on the agarose. […] Slices were cut tangential to the endocardium. […]
(§1) Ventricular slices were electrophysiologically studied with optical mapping technique. […] Transmembrane potential (Vm) was measured using di4-ANEEPS and RH237 (Life Technologies). Intracellular calcium was measured using Rhod-2AM (Life Technologies). […]
Activation map was plotted via calculating activation time points at 50% of action potential upstroke amplitude. Action potential and calcium transient duration was calculated at 80% repolarization/relaxation. When slices were field-paced, conduction velocity could not be quantified via traditional longitudinal and transverse direction. During point pacing conduction velocity was calculated using a semi-automated Matlab function ORCA. Effective refractory period was measured using S1-S1 pacing protocol until 1:1 capture was lost. […]

Experiment [2] deals with failing slices (left ventricular free wall of failing hearts). Put plainly: Optical mapping of acute drug response in failing human heart slices. As to conditions: isoproterenol, baseline 0.47±0.008. The protocol:
Adult human hearts were procured either as failing human hearts from Barnes-Jewish Hospital or donor human hearts from Mid-America transplant services. Explanted hearts were cardioplegically arrested via high potassium solution (in mmol/L: NaCl 110, CaCl2 1.2, KCl 16, MgCl2 16, NaHCO3 10) and were cooled to approximately 4° C. in the operating room following aortic cross-clamp. Failing hearts were perfused through both coronaries, while donor hearts were perfused systemically prior to removal from body. The heart was maintained at this low temperature to preserve tissue during the 15-20 minute transportation time from the operating room to the research laboratory.
as §1
Activation map was plotted via calculating activation time points at 50% of action potential upstroke amplitude. Action potential and calcium transient duration was calculated at 80% repolarization/relaxation. When slices were field-paced, conduction velocity could not be quantified via traditional longitudinal and transverse direction. During point pacing conduction velocity was calculated using a semi-automated Matlab function ORCA. […]

Experiment [3] relates to human ventricular slices (α1-adrenergic receptor stimulation). Kind of experiment: Chronic drug model: acute versus chronic phenylephrine in cultured human ventricular slices, optical mapping. As to conditions: for effect on AP duration (APD): 1 Hz (60 BPM) pacing. As to the method: Non-failing donor hearts that were rejected for transplantation were cardioplegically arrested and cooled in the operating room following the same procedure accepted for heart transplantation. Cardiac tissue that was promptly delivered to the research laboratory, where it was sliced tangential to the endocardium using a high precision (1 μm) vibrating microtome, transferred to a custom-designed incubation apparatus, and cultured at a liquid-air interface in 6-well culture plates using Transwell inserts. Slices were cultured in M-199 supplemented with 1×ITS (Insulin, Transferrin, Selenium), 10 mM 2,3-butanedione monoxime, and 2% penicillin-streptomycin in a 37° C. incubator with humidified air with 5% CO2. Culture medium was changed daily. Vital tissue slices from adult myocardium prepared in this manner have previously been cultured for up to 28 days with high cellular viability and maintenance of expression of the major ion channels and action potential characteristics.
Slices were cultured in medium 199 supplemented with 2% penicillin-streptomycin, 1×ITS (Insulin, Transferrin, Selenium) liquid media supplement, and 10 mM 2,3-butanedione monoxime. Slices were individually washed in sterile PBS solution 6 times before placing in culture. Sterile forceps were used to handle slices at all time. […]
After a 24 hour culture period, slices' electrophysiology was measured with optical mapping to examine potential functional changes occurred during culture. […]
Utilizing cultured slices and adult dosage of phenylephrine, a widely used selective α1-adrenergic receptor agonist, a model to study chronic drug effects in human cardiac slices was developed. Slice electrophysiology was first acutely measured using optical mapping after application of 3 μM phenylephrine. […]
Slices were cultured in a tissue incubator for 24 hours. Control cultured slices were measured before and after phenylephrine application similar to acute slices, slices cultured in drug media were measured separately. […] Only transverse conduction velocity could be measured accurately due to the small size of the tissue.
Activation map was plotted via calculating activation time points at 50% of action potential upstroke amplitude. Action potential and calcium transient duration was calculated at 80% repolarization/relaxation. When slices were field-paced, conduction velocity could not be quantified via traditional longitudinal and transverse direction. During point pacing conduction velocity was calculated using a semi-automated Matlab function ORCA. Effective refractory period was measured using S1-S1 pacing protocol until 1:1 capture was lost. Action potential and calcium transient were recorded at cycle lengths from 2000 ms to 200 ms.

Regarding `CC(C)NCC(O)c1ccc(O)c(O)c1` (stereo not drawn) [isoproterenol], the results for the “conduction velocity (CV)” value in experiment [1] and in experiment [2] were 0.84±0.03 m/s and 0.54±0.006 m/s, respectively.

For `CNC[C@H](O)c1cccc(O)c1` [phenylephrine], the “effect on AP restitution curve” value is “shifted the AP restitution curve upwards significantly” in experiment [3] (acute (15 minutes) 3 μM, at baseline as well as after one day in culture) and “shifted the AP restitution curve downwards” in experiment [3] (chronic (24 hours) 3 μM). Further, the “effect on AP duration (APD)” value in experiment [3] (acute treatment at baseline and after one day in culture) is given as “APD lengthening”; in experiment [3] (chronic treatment (24 hours)), “APD shortening”.
